Measured values: PMC7979765, “trans-Translation inhibitors bind to a novel site on the ribosome and clear Neisseria gonorrhoeae in vivo” (Nature Communications, 2021)
In brackets after ≈: the same amount, converted by molar mass. Several values for one entry are separate records, joined by “and”; a condition that tells them apart may be missing. Equal values may be shown once. Read-outs that look alike come from different tables or passages of the source.

Assays:
[1] = system: Salmonella typhimurium strains TA98 and TA100; type: cell-based
Method: The Ames assay was performed at SRI Biosciences, following the standard protocols established there[55]–[57]. In brief, samples were evaluated for their ability to induce genetic damage using the plate incorporation method with Salmonella typhimurium strains TA98 and TA100 with and without a metabolic activation mixture containing 10% Aroclar-1254-induced rat-liver microsomes (S9). MBX-4132 was tested from a 5 mg/mL DMSO stock solution (the solubility limit), which provided plate concentrations up to 500 µg/plate, with serial dilutions accessing doses as low as 5 µg/plate. MBX-4132 precipitated at the two highest dose levels (500 and 100 µg/plate), but at 50 µg/plate, no precipitation was observed. […] Test articles were considered mutagenic when the mean number of revertant colonies increased in a dose-dependent manner. Some cytotoxicity was observed, but sufficient colonies were formed to allow analysis. […] Data for 2-nitrofluorene and sodium azide (positive controls) and DMSO (negative control) were included for reference.

[2] = system: N. gonorrhoeae ATCC 49226; experiment: Time-kill assay
Neisseria gonorrhoeae = experiment: MIC, microbroth dilution, G77L medium; type: cell-based
[3] = Aqueous solubility (nephelometric); type: physicochemical
[4] = Liver microsome stability, murine; type: in vitro ADME, mouse; conditions: murine liver microsomes
Method: To examine potential for first-pass metabolism of analogs in the liver, the stability of analogs in the presence of liver microsome preparations (Eurofins Discovery for human, dog and rat; Xenotech for mouse) was measured using the method of Kuhnz, et al.[50]. for murine studies and Oback for the dog, human and rat studies. The amount of parent compound remaining after incubation with microsomes in the presence of NADPH over a 30 min time range was measured using a reverse-phase liquid chromatography/mass spectroscopy method that was customized for each compound. Half-lives were calculated using linear regression analysis of several time points.

[5] = system: N. gonorrhoeae strain H041; experiment: In vivo efficacy in the gonorrhea mouse model; conditions: for mouse cfu: individual mice, 2.00E+01 = no CFU/mL recovered, limit of detection

With `Nc1ccc2cc3ccccc3cc2c1` [2-Aminoanthracene, reference compound] the “Average Mean Revertants/plate” value ([1]; TA98, 2 µg/plate, + S9) was 1206.7 Revertants/plate, the “Mean Revertants/plate” value ([1]; TA98, 2 µg/plate, + S9, replicates) was 1086 Revertants/plate and 1134 Revertants/plate and 1400 Revertants/plate and the “Mean Revertants/plate” value ([1]; TA98, + S9, 2 µg/plate) was 1206.7. For the same compound, the “Average Mean Revertants/plate” value ([1]; TA100, 2 µg/plate, + S9) was 1438.7 Revertants/plate, the “Mean Revertants/plate” value ([1]; TA100, 2 µg/plate, + S9, replicates) was 1428 Revertants/plate and 1389 Revertants/plate and 1499 Revertants/plate and the “Mean Revertants/plate” value ([1]; TA100, + S9, 2 µg/plate) was 1438.7.

For `O=[N+]([O-])c1ccc2c(c1)Cc1ccccc1-2` [2-Nitrofluorene, reference compound], the “Average Mean Revertants/plate” value ([1]; TA98, 5 µg/plate, no S9) was 1331.3 Revertants/plate, the “Mean Revertants/plate” value ([1]; TA98, 5 µg/plate, no S9, replicates) was 1220 Revertants/plate and 1245 Revertants/plate and 1529 Revertants/plate and the “Mean Revertants/plate” value ([1]; TA98, without S9, 5 µg/plate) was 1331.3.

For `CO/N=C(\C(=O)N[C@@H]1C(=O)N2C(C(=O)O)=C(CSc3nc(=O)c(=O)[nH]n3C)CS[C@H]12)c1csc(N)n1` [CRO, reference compound], the “AVE CFU/ml” value ([2]; 1X MIC, 0 h) was 9800000 CFU/ml, the “AVE CFU/ml” value ([2]; 1X MIC, 1 h) was 8.20E+06 CFU/ml and 8200000 CFU/ml and the “CFU/mL, replicates 1-3” value ([2]; 1X MIC, 1 h) was 8200000 CFU/mL and 8000000 CFU/mL and 8400000 CFU/mL. The “AVE CFU/ml” value ([2]; 1X MIC, 2 h) was 3.47E+06 CFU/ml and 3466667 CFU/ml, the “CFU/mL, replicates 1-3” value ([2]; 1X MIC, 2 h) was 3800000 CFU/mL and 3200000 CFU/mL and 3400000 CFU/mL and the “AVE CFU/ml” value ([2]; 1X MIC, 4 h) was 60666.7 CFU/ml and 6.07E+04 CFU/ml. The “CFU/mL, replicates 1-3” value ([2]; 1X MIC, 4 h) was 60000 CFU/mL and 58000 CFU/mL and 64000 CFU/mL, the “AVE CFU/ml” value ([2]; 1X MIC, 6 h) was 27333.3 CFU/ml and 2.73E+04 CFU/ml and the “CFU/mL, replicates 1-3” value ([2]; 1X MIC, 6 h) was 24000 CFU/mL and 32000 CFU/mL and 26000 CFU/mL. For the same compound, the “AVE CFU/ml” value ([2]; 1X MIC, 8 h) was 5733.33 CFU/ml and 5.73E+03 CFU/ml, the “CFU/mL, replicates 1-3” value ([2]; 1X MIC, 8 h) was 5800 CFU/mL and 5400 CFU/mL and 6000 CFU/mL and the “AVE CFU/ml” value ([2]; 1X MIC, 24 h) was 2466667 CFU/ml and 2.47E+06 CFU/ml. The “CFU/mL, replicates 1-3” value ([2]; 1X MIC, 24 h) was 2400000 CFU/mL and 2200000 CFU/mL and 2800000 CFU/mL, the “AVE CFU/ml” value ([2]; 4X MIC, 0 h) was 9800000 CFU/ml and the “AVE CFU/ml” value ([2]; 4X MIC, 1 h) was 7.67E+06 CFU/ml and 7666667 CFU/ml. The “CFU/mL, replicates 1-3” value ([2]; 4X MIC, 1 h) was 7800000 CFU/mL and 7200000 CFU/mL and 8000000 CFU/mL, the “AVE CFU/ml” value ([2]; 4X MIC, 2 h) was 3.87E+06 CFU/ml and 3866667 CFU/ml and the “CFU/mL, replicates 1-3” value ([2]; 4X MIC, 2 h) was 3400000 CFU/mL and 4000000 CFU/mL and 4200000 CFU/mL. The “AVE CFU/ml” value ([2]; 4X MIC, 4 h) was 40000 CFU/ml and 4.00E+04 CFU/ml, the “CFU/mL, replicates 1-3” value ([2]; 4X MIC, 4 h) was 36000 CFU/mL and 42000 CFU/mL (2×) and the “AVE CFU/ml” value ([2]; 4X MIC, 6 h) was 5266.67 CFU/ml and 5.27E+03 CFU/ml. For the same compound, the “CFU/mL, replicates 1-3” value ([2]; 4X MIC, 6 h) was 4400 CFU/mL and 5200 CFU/mL and 6200 CFU/mL, the “AVE CFU/ml” value ([2]; 4X MIC, 8 h) was 1066.67 CFU/ml and 1.07E+03 CFU/ml and the “CFU/mL, replicates 1-3” value ([2]; 4X MIC, 8 h) was 1400 CFU/mL and 800 CFU/mL and 1000 CFU/mL. For the same compound, the “AVE CFU/ml” value ([2]; 4X MIC, 24 h) was 0 CFU/ml and 0.00E+00 CFU/ml, the “CFU/mL, replicates 1-3” value ([2]; 4X MIC, 24 h) was 0 CFU/mL and the MIC ([2]; Neisseria gonorrhoeae, ATCC49226) was 8 ng/mL (≈ 0.0144 µM).

`O=C(Nc1nnc(-c2ccc(F)cc2)o1)N1CCc2ccccc2C1` [MBX4132] showed an MIC (Neisseria gonorrhoeae; strain MMX 6744, single data point, Micromyx) of 0.27 µg/mL (≈ 0.798 µM), an MIC (Neisseria gonorrhoeae; strain MMX 6746, single data point, Micromyx) of 0.14 µg/mL (≈ 0.414 µM) and an MIC (Neisseria gonorrhoeae; strain MMX 6752, single data point, Micromyx) of 0.27 µg/mL (≈ 0.798 µM). For the same compound, the MIC (Neisseria gonorrhoeae; strain MMX 6753, single data point, Micromyx) was 0.14 µg/mL (≈ 0.414 µM), the MIC (Neisseria gonorrhoeae; strain MMX 6757, single data point, Micromyx) was 0.07 µg/mL (≈ 0.207 µM) and the MIC (Neisseria gonorrhoeae; strain MMX 6758, single data point, Micromyx) was 0.27 µg/mL (≈ 0.798 µM). For the same compound, the MIC (Neisseria gonorrhoeae; strain MMX 6762, single data point, Micromyx) was 0.27 µg/mL (≈ 0.798 µM), the MIC (Neisseria gonorrhoeae; strain MMX 6767, single data point, Micromyx) was 0.14 µg/mL (≈ 0.414 µM) and the MIC (Neisseria gonorrhoeae; strain MMX 6771, single data point, Micromyx) was 0.14 µg/mL (≈ 0.414 µM). For the same compound, the MIC (Neisseria gonorrhoeae; strain MMX 6793, single data point, Micromyx) was 0.14 µg/mL (≈ 0.414 µM), the MIC (Neisseria gonorrhoeae; strain MMX 6797, single data point, Micromyx) was 0.14 µg/mL (≈ 0.414 µM) and the MIC (Neisseria gonorrhoeae; strain MMX 6803, single data point, Micromyx) was 0.27 µg/mL (≈ 0.798 µM). For the same compound, the MIC (Neisseria gonorrhoeae; strain MMX 6812, single data point, Micromyx) was 0.27 µg/mL (≈ 0.798 µM), the MIC (Neisseria gonorrhoeae; strain MMX 6818, single data point, Micromyx) was 0.27 µg/mL (≈ 0.798 µM) and the MIC (Neisseria gonorrhoeae; strain MMX 6819, single data point, Micromyx) was 0.14 µg/mL (≈ 0.414 µM). It also gave an MIC (Neisseria gonorrhoeae; strain MMX 6879, single data point, Micromyx) of 0.14 µg/mL (≈ 0.414 µM), an MIC (Neisseria gonorrhoeae; strain MMX 6921, single data point, Micromyx) of 0.53 µg/mL (≈ 1.57 µM) and an MIC (Neisseria gonorrhoeae; strain MMX 6922, single data point, Micromyx) of 0.53 µg/mL (≈ 1.57 µM). The MIC (Neisseria gonorrhoeae; strain MMX 6983, single data point, Micromyx) was 0.53 µg/mL (≈ 1.57 µM), the MIC (Neisseria gonorrhoeae; strain MMX 6989, single data point, Micromyx) was 0.14 µg/mL (≈ 0.414 µM) and the MIC (Neisseria gonorrhoeae; strain MMX 6990, single data point, Micromyx) was 0.14 µg/mL (≈ 0.414 µM). The MIC (Neisseria gonorrhoeae; strain MMX 6992, single data point, Micromyx) was 0.14 µg/mL (≈ 0.414 µM), the MIC (Neisseria gonorrhoeae; strain MMX 6996, single data point, Micromyx) was 0.27 µg/mL (≈ 0.798 µM) and the MIC (Neisseria gonorrhoeae; strain MMX 6998, single data point, Micromyx) was 0.53 µg/mL (≈ 1.57 µM). For the same compound, the MIC (Neisseria gonorrhoeae; strain MMX 7002, single data point, Micromyx) was 0.27 µg/mL (≈ 0.798 µM), the MIC (Neisseria gonorrhoeae; strain MMX 7005, single data point, Micromyx) was 0.03 µg/mL (≈ 0.0887 µM) and the MIC (Neisseria gonorrhoeae; strain MMX ATCC 49226, single data point, Micromyx) was 0.27 µg/mL (≈ 0.798 µM).

With `O=C(Nc1nnc(-c2ccc(F)cc2)o1)c1ccccc1` [MBX-C4227] the “Average solubility” value [3] was 50 µM, the Solubility ([3]; single replicates) was 50 µM (≈ 14.2 µg/mL) and the “Average MLMS t½” value ([4]; average of replicates) was <5 min. The “MLMS t½” value ([4]; individual replicates) was <5 min.

With `O=C(Nc1nnc(-c2ccc(F)cc2)o1)c1ccccc1` [MBXC1-4227] the MIC (Neisseria gonorrhoeae; Neisseria gonorrhoeae ATCC 49226, source data, individual replicates) was 0.8852 µg/mL and 0.4426 µg/mL.

With `[N-]=[N+]=[N-].[Na+]` [Sodium Azide, reference compound] the “Average Mean Revertants/plate” value ([1]; TA100, 5 µg/plate, no S9) was 2029.0 Revertants/plate, the “Mean Revertants/plate” value ([1]; TA100, 5 µg/plate, no S9, replicates) was 1978 Revertants/plate and 2032 Revertants/plate and 2077 Revertants/plate and the “Mean Revertants/plate” value ([1]; TA100, without S9, 5 µg/plate) was 2029.0.

In the case of `CNC(C)C1CCC(N)C(OC2C(N)CC(N)C(OC3OCC(C)(O)C(NC)C3O)C2O)O1` (stereo not shown) [gentamicin, reference compound], the mouse cfu ([5]; Day 5, GEN, listed as GEN) is reported as 2.00E+01 CFU/mL (19×) and 3.11E+03 CFU/mL, the mouse cfu ([5]; Day 6, GEN, listed as GEN) is reported as 2.00E+01 CFU/mL (19×) and 6.14E+04 CFU/mL and the mouse cfu ([5]; Day 7, GEN, listed as GEN) is reported as 2.00E+01 CFU/mL (19×) and 3.22E+05 CFU/mL. For the same compound, the mouse cfu ([5]; Day 8, GEN, listed as GEN) was 2.00E+01 CFU/mL (19×) and 5.02E+06 CFU/mL, the mouse cfu ([5]; Day -1, GEN, listed as GEN) was 1.75E+06 CFU/mL and 2.50E+03 CFU/mL and 5.59E+05 CFU/mL and 1.30E+04 CFU/mL and 2.52E+05 CFU/mL and 1.60E+05 CFU/mL and 6.90E+06 CFU/mL and 1.04E+06 CFU/mL and 2.76E+04 CFU/mL and 2.76E+06 CFU/mL and 1.05E+03 CFU/mL and 2.80E+06 CFU/mL and 2.25E+06 CFU/mL and 3.27E+05 CFU/mL and 1.99E+05 CFU/mL and 1.82E+05 CFU/mL and 1.55E+06 CFU/mL and 1.50E+06 CFU/mL and 9.59E+05 CFU/mL and 4.61E+03 CFU/mL and the “mice cleared per day: cleared flag” value ([5]; GEN, individual mice 21-40, 1 = cleared on the day, 0 = not cleared, listed as GEN) was 1 and 0. For the same compound, the “Day (mice cleared per day: day on which the mouse was cleared)” value ([5]; GEN, individual mice 21-40, Day 8 with flag 0 = not cleared, listed as GEN) was 1 and 4 and 8 and 3 and 5 and 2 and the “treated mice with infection cleared” value ([5]; daily intraperitoneal injection 48 mg/kg for 5 days, N. gonorrhoeae H041) was 95%.
